The text below walks through data of US20190031857A1, “BLACK-COLORED POLYAMIDE COMPOSITION AND PRODUCTION AND USE THEREOF” (BASF SE, priority 2016, published 2019).

The nature of series [1]: Incorporation and coloring of the polymer by extrusion. Conditions: attempted bulk coloring of polyethylene, above 160° C. The procedure:
98 parts polyethylene (Grade M80064 from Sabic) were premixed in a tumbling mixer with 2 parts Solvent Black 28 (Orasol Black 045 from BASF) for 10 minutes and extruded in a twin-shaft extruder having a diameter of 18 mm and an L/D ratio of 44 at barrel temperature 210° C. A significant odor developed from the extruder nozzle; the polymer strands had expanded in the foam mold. The production of plaques by means of injection molding machines was not possible.
99.9 parts polyamide PA6 (Ultramid B3S from BASF) were premixed in a tumbling mixer with 0.1 part Solvent Violet 13 (Orasol Blue 640 from BASF) for 10 minutes and then extruded and pelletized using a twin-shaft extruder having a diameter of 18 mm and an L/D ratio of 44 at barrel temperature 260° C. For this purpose, the natural-colored polyamide pellets were dried beforehand in a drying oven at 100° C. for 4 hours, such that the moisture content was below 0.1%. For this purpose, the moisture content was determined by means of a thermal balance.

The nature of series [2]: Solubility of Solvent Black 28 in solvents. It counts as physicochemical. The procedure:
The chromium complex dye b) used in accordance with the invention is available under the name Solvent Black 28 (CAS no.: 12237-23-9, C.I. Solvent Black 28). A commercially available product is Orasol Black 045 from BASF SE. […] Solubility at 20° C. in ethanol is about 10 g/L and in methyl ethyl ketone about 400 g/L.

Solvent Black 28: the “thermal stability in bulk coloring of polyethylene” value in series [1] is recorded as “entirely inadequate thermal stability”. Further, the Solubility in ethanol result in series [2] (20° C., ethanol) was “about 10 g/L”. In series [2] (20° C., methyl ethyl ketone), the “Solubility in methyl ethyl ketone” value was “about 400 g/L”. In addition, the Water solubility entry in series [2] (water) is given as “almost water-insoluble”.
